Source: article PMC3679108, “A Novel Glucagon-Related Peptide (GCRP) and Its Receptor GCRPR Account for Coevolution of Their Family Members in Vertebrates” (PLoS ONE, 2013)
Peptide text beside a SMILES is read from it.

Experiments:
Type in all cases: cell-based
huGIPR = molecular target: T1, huGIPR (Homo sapiens, UniProt P48546); assay: CRE-luc reporter assay, huGIPR; details: Table 3, HEK293T, 6 h, mean ± S.E. of at least three independent experiments, NR = no response
T1 construct: expressed in transfected cells; host or cells: HEK293T
T1 sequence (P48546 22-466): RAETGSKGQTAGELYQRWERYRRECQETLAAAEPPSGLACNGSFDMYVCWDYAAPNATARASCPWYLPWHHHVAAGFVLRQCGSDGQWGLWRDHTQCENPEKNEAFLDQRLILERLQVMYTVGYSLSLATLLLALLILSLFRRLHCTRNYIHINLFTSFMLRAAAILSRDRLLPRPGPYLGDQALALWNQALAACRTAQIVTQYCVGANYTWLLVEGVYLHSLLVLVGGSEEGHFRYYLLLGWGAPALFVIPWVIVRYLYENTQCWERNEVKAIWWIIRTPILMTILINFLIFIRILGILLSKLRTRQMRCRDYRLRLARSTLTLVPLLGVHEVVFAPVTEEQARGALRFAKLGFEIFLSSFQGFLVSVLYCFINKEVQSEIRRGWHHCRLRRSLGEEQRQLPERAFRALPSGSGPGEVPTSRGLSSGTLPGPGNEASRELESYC

huGLP1R = huGLP1R (Homo sapiens, UniProt P43220); assay: CRE-luc reporter assay, huGLP1R; details: Table 3, HEK293T, 6 h, mean ± S.E. of at least three independent experiments
huGLP2R = molecular target: T2, huGLP2R (Homo sapiens, UniProt O95838); assay: CRE-luc reporter assay, huGLP2R; details: Table 3, HEK293T, 6 h, mean ± S.E. of at least three independent experiments, NR = no response
T2 construct: host or cells: HEK293T
T2 sequence (O95838 1-553): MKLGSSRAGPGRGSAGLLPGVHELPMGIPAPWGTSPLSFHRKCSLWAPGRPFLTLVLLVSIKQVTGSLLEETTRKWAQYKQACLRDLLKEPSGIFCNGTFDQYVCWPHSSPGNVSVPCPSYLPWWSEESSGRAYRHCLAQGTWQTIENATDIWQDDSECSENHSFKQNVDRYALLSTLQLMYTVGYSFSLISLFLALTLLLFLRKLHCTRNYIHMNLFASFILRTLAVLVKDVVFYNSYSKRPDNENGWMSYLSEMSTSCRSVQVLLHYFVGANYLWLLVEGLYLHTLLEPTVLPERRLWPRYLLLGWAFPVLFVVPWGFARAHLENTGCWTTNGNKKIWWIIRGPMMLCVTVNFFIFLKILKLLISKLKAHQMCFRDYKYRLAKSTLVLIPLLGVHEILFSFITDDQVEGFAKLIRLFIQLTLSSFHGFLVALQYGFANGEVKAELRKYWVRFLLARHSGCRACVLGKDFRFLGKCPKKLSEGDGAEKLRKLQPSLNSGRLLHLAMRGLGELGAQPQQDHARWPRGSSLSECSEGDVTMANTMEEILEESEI

huGCGR = molecular target: T3, huGCGR (Homo sapiens, UniProt P47871); assay: CRE-luc reporter assay, huGCGR; details: Table 3, HEK293T, 6 h, mean ± S.E. of at least three independent experiments, NR = no response
T3 construct: host or cells: HEK293T
T3 sequence (P47871 26-477): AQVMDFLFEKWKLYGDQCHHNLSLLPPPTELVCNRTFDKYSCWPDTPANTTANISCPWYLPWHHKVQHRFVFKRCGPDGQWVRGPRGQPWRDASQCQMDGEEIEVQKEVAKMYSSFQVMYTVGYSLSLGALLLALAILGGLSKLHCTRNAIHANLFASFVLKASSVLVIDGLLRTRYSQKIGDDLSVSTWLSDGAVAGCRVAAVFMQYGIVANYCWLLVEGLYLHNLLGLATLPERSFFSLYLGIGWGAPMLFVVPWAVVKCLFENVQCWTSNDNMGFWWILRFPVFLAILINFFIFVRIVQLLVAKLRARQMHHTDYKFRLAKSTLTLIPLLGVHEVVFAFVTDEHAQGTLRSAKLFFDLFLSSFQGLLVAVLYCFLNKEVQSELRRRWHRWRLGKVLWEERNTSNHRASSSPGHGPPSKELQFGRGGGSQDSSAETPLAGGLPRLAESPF

Sequence of huGLP1R (P43220 24-463): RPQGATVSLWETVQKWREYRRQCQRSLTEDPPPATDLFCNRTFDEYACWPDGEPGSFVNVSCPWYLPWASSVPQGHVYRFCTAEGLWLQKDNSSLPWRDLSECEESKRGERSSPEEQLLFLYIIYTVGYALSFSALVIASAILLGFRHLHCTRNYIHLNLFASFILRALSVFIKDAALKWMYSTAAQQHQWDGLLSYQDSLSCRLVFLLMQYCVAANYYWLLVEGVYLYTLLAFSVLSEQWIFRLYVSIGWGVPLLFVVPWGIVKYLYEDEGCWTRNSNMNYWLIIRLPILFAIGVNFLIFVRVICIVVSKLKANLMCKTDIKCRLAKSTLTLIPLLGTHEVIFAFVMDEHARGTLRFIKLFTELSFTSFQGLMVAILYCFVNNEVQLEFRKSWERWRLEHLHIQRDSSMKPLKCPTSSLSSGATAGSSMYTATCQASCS

What does the source list for CC[C@H](C)[C@H](NC(=O)[C@H](CC(C)C)NC(=O)[C@H](Cc1c[nH]c2ccccc12)NC(=O)[C@H](Cc1c[nH]cn1)NC(=O)[C@@H](NC(=O)[C@H](Cc1ccccc1)NC(=O)[C@H](CC(=O)O)NC(=O)[C@H](CCCCN)NC(=O)[C@H](C)NC(=O)[C@H](CCCCN)NC(=O)[C@H](CCSC)NC(=O)[C@H](CCCCN)NC(=O)[C@H](CC(=O)O)NC(=O)[C@H](CC(C)C)NC(=O)[C@H](Cc1ccc(O)cc1)NC(=O)[C@H](CCCNC(=N)N)NC(=O)[C@@H](NC(=O)[C@H](Cc1ccccc1)NC(=O)[C@H](CC(=O)O)NC(=O)[C@H](CO)NC(=O)[C@@H](NC(=O)[C@H](Cc1ccccc1)NC(=O)[C@@H](NC(=O)CNC(=O)[C@H](CCC(=O)O)NC(=O)[C@H](CO)NC(=O)[C@@H](N)Cc1c[nH]cn1)[C@@H](C)O)[C@@H](C)O)[C@@H](C)O)C(C)C)C(=O)N[C@@H](CC(N)=O)C(=O)N[C@H](C(=O)O)[C@@H](C)O [chGCRP] (H-HSEGTFTSDFTRYLDKMKAKDFVHWLINT-OH)?
EC50 (huGIPR): > 10000 nM; EC50 (huGLP1R): 48.9 ± 9.15 nM; EC50 (huGLP2R): 592 ± 127 nM; EC50 (huGCGR): 42.7 ± 14.5 nM

For CC[C@H](C)[C@H](NC(=O)[C@H](C)NC(=O)[C@H](C)NC(=O)[C@H](CC(C)C)NC(=O)[C@H](Cc1c[nH]c2ccccc12)NC(=O)[C@H](CCC(=O)O)NC(=O)[C@@H](NC(=O)[C@H](Cc1ccccc1)NC(=O)[C@H](CC(N)=O)NC(=O)[C@H](CCCCN)NC(=O)[C@H](C)NC(=O)[C@H](CCCCN)NC(=O)[C@H](CCSC)NC(=O)[C@H](CCCCN)NC(=O)[C@H](CC(=O)O)NC(=O)[C@H](CC(C)C)NC(=O)[C@H](Cc1ccc(O)cc1)NC(=O)[C@H](CC(N)=O)NC(=O)[C@@H](NC(=O)[C@H](CC(C)C)NC(=O)[C@H](CC(=O)O)NC(=O)[C@H](CO)NC(=O)[C@@H](NC(=O)[C@H](Cc1ccccc1)NC(=O)[C@H](CCSC)NC(=O)CNC(=O)[C@H](CC(=O)O)NC(=O)[C@@H](NC(=O)[C@@H](N)Cc1c[nH]cn1)[C@@H](C)O)[C@@H](C)O)[C@@H](C)O)C(C)C)C(=O)N[C@@H](CCCCN)C(=O)N[C@@H](CCC(N)=O)C(=O)N[C@@H](CCC(N)=O)C(=O)N[C@@H](CCC(=O)O)C(=O)O [mdGCRP] (H-HTDGMFTSDLTNYLDKMKAKNFVEWLAAIKQQE-OH), which EC50 (huGIPR) is on record?
Its EC50 is > 10000 nM.

And the EC50 (huGLP1R)?
The EC50 was 156 ± 32.8 nM.

What about the EC50 (huGLP2R) of the same compound?
The EC50 was > 10000 nM.

What about the EC50 (huGCGR) of the same compound?
The EC50 was 175 ± 41.8 nM.

What does the source list for CSCC[C@H](NC(=O)[C@H](CC(C)C)NC(=O)[C@H](Cc1c[nH]c2ccccc12)NC(=O)[C@H](CCC(N)=O)NC(=O)[C@@H](NC(=O)[C@H](Cc1ccccc1)NC(=O)[C@H](CC(=O)O)NC(=O)[C@H](CCCCN)NC(=O)[C@H](C)NC(=O)[C@H](CCCCN)NC(=O)[C@H](CCSC)NC(=O)[C@H](CCCCN)NC(=O)[C@H](CC(=O)O)NC(=O)[C@H](CC(C)C)NC(=O)[C@H](Cc1ccc(O)cc1)NC(=O)[C@H](CCCNC(=N)N)NC(=O)[C@@H](NC(=O)[C@H](CC(C)C)NC(=O)[C@H](CC(=O)O)NC(=O)[C@H](CO)NC(=O)[C@H](CO)NC(=O)[C@H](Cc1ccccc1)NC(=O)[C@@H](NC(=O)CNC(=O)[C@H](CCC(=O)O)NC(=O)[C@H](CO)NC(=O)[C@@H](N)Cc1c[nH]cn1)[C@@H](C)O)[C@@H](C)O)C(C)C)C(=O)N[C@@H](CC(N)=O)C(=O)O [xeGCRP] (H-HSEGTFSSDLTRYLDKMKAKDFVQWLMN-OH)?
EC50 (huGIPR): > 10000 nM; EC50 (huGLP1R): > 1000 nM; EC50 (huGLP2R): > 10000 nM; EC50 (huGCGR): 182 ± 39.5 nM
